Measurements reported in ChEMBL document CHEMBL1201862, “PubChem BioAssay data set” (2004).
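Following 48 hours of exposure in 96-well plates, responses at five concentrations were used to interpolate endpoints linearly. The concentration for 50% growth inhibition is given as GI50.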 The source made the active and inactive calls. No stated cut-off is given here; in the data, active = GI50 up to about 1.1 µM and inactive = higher.

What was measured:
Assay in all cases: inhibition of tumour cell growth, NCI panel, 48 h
[1] = test system: SF-268
[2] = test system: OVCAR-4
[3] = test system: 786-0
[4] = test system: TK-10
[5] = test system: SR
[6] = test system: UACC-257
[7] = test system: CAKI-1
[8] = test system: HCT-15
[9] = test system: LOX IMVI
[10] = test system: M14
[11] = test system: HT-29
[12] = test system: OVCAR-5
[13] = test system: RXF 393
[14] = test system: A549
[15] = test system: K562
[16] = test system: MOLT-4
[17] = test system: SNB-19
[18] = test system: IGROV-1
[19] = test system: NCI/ADR-RES
[20] = test system: SF-539

Row | Structure (SMILES) | GI50 [1] | GI50 [2] | GI50 [3] | GI50 [4] | GI50 [5] | GI50 [6] | GI50 [7] | GI50 [8] [µM] | GI50 [9] | GI50 [10] | GI50 [11] | GI50 [12] | GI50 [13] | GI50 [14] | GI50 [15] | GI50 [16] | GI50 [17] | GI50 [18] | GI50 [19] | GI50 [20]
1 | C/C(=N\NC(=O)c1ccncc1)c1sc(-n2nc(-c3ccccc3)cc2-c2ccccc2)nc1C | > 100 µM (inactive) | > 31.6 µM (inactive) | > 31.6 µM (inactive) | > 31.6 µM (inactive) | 25.5 µM (inactive) | > 31.6 µM (inactive) | 98.4 µM (inactive) | > 31.6 | > 80.9 µM (inactive) | > 31.6 µM (inactive) | > 100 µM (inactive) | > 31.6 µM (inactive) | > 31.6 µM (inactive) | > 31.6 µM (inactive) | 59.6 µM (inactive) | 17.1 µM (inactive) | > 31.6 µM (inactive) | > 33.7 µM (inactive) | > 100 µM (inactive) | > 31.6 µM (inactive)
2 | CCCCNC(=O)OCCN=C1c2ccccc2C(Br)C(Br)c2ccccc21 (stereo not given) | 32.3 µM (inactive) | 23.8 µM (inactive) | 14.6 µM (inactive) | 25.4 µM (inactive) | 21.3 µM (inactive) | 26.8 µM (inactive) | 25.6 µM (inactive) | 16 | 20 µM (inactive) | 19.4 µM (inactive) | 12.5 µM (inactive) | > 100 µM (inactive) | 14.3 µM (inactive) | 83.9 µM (inactive) | 29.9 µM (inactive) | 24.9 µM (inactive) | 24.9 µM (inactive) | 49.8 µM (inactive) | 19.9 µM (inactive) | 29.9 µM (inactive)
3 | CCCCCCCCCCCCCCCCP(=O)([O-])OCC[N+](C)(C)C | 17.6 µM (inactive) | 19.1 µM (inactive) | 7.46 µM (inactive) | 1.5 µM (inactive) | 10.4 µM (inactive) | 16.9 µM (inactive) | 12.1 µM (inactive) | 6.56 | 14.9 µM (inactive) | 15.3 µM (inactive) | 12.7 µM (inactive) | 8.55 µM (inactive) | 3.93 µM (inactive) | 18.1 µM (inactive) | 19 µM (inactive) | 17.2 µM (inactive) | 30 µM (inactive) | 1.56 µM (inactive) | 18.7 µM (inactive) | 24.5 µM (inactive)
4 | COC(CC1(/C=C/O[Si](C(C)C)(C(C)C)C(C)C)C(=O)N(COCC[Si](C)(C)C)c2ccccc21)OC (stereo not given) | 17 µM (inactive) | 20.8 µM (inactive) | 31 µM (inactive) | 74.8 µM (inactive) | 21 µM (inactive) | 25.5 µM (inactive) | 46.3 µM (inactive) | 36.6 | 20.8 µM (inactive) | 27.2 µM (inactive) | 96.4 µM (inactive) | 37.4 µM (inactive) | 3.9 µM (inactive) | 36.3 µM (inactive) | > 100 µM (inactive) | 22.1 µM (inactive) | 33.7 µM (inactive) | 24.5 µM (inactive) | > 100 µM (inactive) | 15.1 µM (inactive)
